# Results as given in EP1996603B1, “LIPID A ANTAGONISTS WITH ANTI-SEPTIC SHOCK, ANTI-INFLAMMATORY, ANTI-ISCHEMIA AND ANALGESIC ACTIVITY” (Università Degli Studi Di Milano - Bicocca, priority 2006, dated 2007).
# Assays:
# [1] = test system: BMΦ and D1 cells; test: Lipid A-induced IL-1β production (ELISA); type: cell-based, Mouse; settings: lipid A (0.5 µM) stimulation, effect proportional to concentration
# Experimental: (§1) • Figure 1. Antagonistic activity of compounds Ia, Ic and Id on lipid A-stimulated cytokine production in BMDC, BMØ and D1 cells. TNFα production was measured in the supernatants 24 h later. From the right: lipid A (0.5µM), cells treated with lipid A alone; DMSO: cells incubated in the presence of complete medium plus DMSO; inhibitor 50 µM, cells treated only with monosaccharides Ia, Ic and Id; other columns, lipid A + compounds […] at increasing doses. The data represent means and standard deviations of triplicate wells. This is a representative of three independent experiments. *, p < 0.05; **, p < 0.01; ***, p< 0.001. • Figure 2. TLR-4 selectivity of monosaccharide Id. […] IL-1β was measured in the supernatants by ELISA. […] Lower panels, TNFα production measured by ELISA 24 h after stimulation with CpG (selective for TLR-9) or PAM3Cys-SK4 (selective for TLR-2) in the presence of compound Id. […] The cells were then analyzed by FACS for the presence of annexin V and propidium iodide (PI) double positive cells. […] NF-kB activation was evaluated in the nuclear extract 2 h later and expressed as optical density (OD) at 450 nm. […] Effect of different doses of compound Id on carrageenan induced edema in mice measured 4h after the exposure and expressed as difference between the paw volume of treated paw versus the contralateral paw. […]
# [2] = target: T1, human TLR-4A (Homo sapiens, UniProt O00206+Q9Y6Y9); test: NF-kB activation in HEK-293 cells transfected with TLR-4, stimulated with lipid A; type: cell-based; settings: TLR-4-transfected HEK 293; lipid A (0.5 µM) after pre-exposure to compound; measured 2 h later
# T1 construct: host or cells: HEK-293 (HEK-293-hTLR-4A)
# T1 sequence (O00206 24-839): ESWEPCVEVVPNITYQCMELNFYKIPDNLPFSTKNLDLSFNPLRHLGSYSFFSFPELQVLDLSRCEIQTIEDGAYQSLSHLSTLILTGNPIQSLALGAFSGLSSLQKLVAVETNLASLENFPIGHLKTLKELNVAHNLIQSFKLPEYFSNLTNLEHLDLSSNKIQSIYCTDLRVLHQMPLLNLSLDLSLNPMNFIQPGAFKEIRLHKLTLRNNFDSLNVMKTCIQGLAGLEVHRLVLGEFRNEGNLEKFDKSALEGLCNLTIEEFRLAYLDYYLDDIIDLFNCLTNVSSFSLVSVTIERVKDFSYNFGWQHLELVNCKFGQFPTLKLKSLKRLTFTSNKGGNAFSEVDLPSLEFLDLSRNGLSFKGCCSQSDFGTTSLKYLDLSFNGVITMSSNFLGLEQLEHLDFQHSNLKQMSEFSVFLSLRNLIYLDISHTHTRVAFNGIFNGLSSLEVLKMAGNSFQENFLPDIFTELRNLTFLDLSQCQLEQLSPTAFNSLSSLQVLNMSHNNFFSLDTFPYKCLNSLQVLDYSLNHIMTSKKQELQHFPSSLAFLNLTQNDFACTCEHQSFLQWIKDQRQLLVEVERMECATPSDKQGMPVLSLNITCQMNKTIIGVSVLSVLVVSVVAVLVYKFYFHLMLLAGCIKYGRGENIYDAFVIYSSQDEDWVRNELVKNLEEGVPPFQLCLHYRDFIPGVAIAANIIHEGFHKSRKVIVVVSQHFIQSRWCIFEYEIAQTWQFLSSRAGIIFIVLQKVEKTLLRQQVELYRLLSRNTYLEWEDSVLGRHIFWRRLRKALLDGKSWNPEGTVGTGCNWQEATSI
# T1 sequence (Q9Y6Y9 17-160 limits assumed): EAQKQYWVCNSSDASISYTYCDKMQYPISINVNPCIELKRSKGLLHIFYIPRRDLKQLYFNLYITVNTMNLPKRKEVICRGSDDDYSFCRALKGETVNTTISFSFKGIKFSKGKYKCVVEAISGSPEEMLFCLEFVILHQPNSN
# Experimental: as §1
# [3] = test system: ischemia-induced EEG flattening; test: Cerebral ischemia by bilateral carotid occlusion, EEG spectral power; type: in vivo, Mongolian gerbils (Meriones unguiculatus); settings: 10 mg/kg i.p. 30 min before bilateral carotid occlusion; starting from 1 hour after recirculation
# Experimental: After implanting EEG electrodes, the gerbils were divided into different groups on the basis of the assigned treatment. Their electroencephalogram (EEG) was recorded for 1 h a day, for three days, to determine the basal total and relative spectral power. The signals were recorded and processed for fast Fourier transform spectral analysis by means of PC software (PowerLab, AD Instruments, Pty, Ltd, Australia). EEG recordings were also made for seven days after ischemia. After basal EEG recordings, each gerbil was again lightly anaesthetised and 10-min. ischemia was induced by bilateral common carotid arteries occlusion. The ischemia was verified qualitatively on paper by the complete flattening of the EEG. A group of animals (sham-operated) underwent the same surgical procedure except that the carotid arteries were not clamped. Compound Id was i.p. administered to the animals at the dose of 10 mg/kg 30 minutes before ischemia induction.
# [4] = test system: neuropathic mice; test: Neuropathic pain after sciatic nerve ligation (plantar test, Von Frey test); type: in vivo, mice C57BL/6J; settings: i.p. 5 mg/kg once a day for one week starting the day after surgery
# Experimental: Male mice C57BL/6J were anesthetized with sodium pentobarbital (65 mg/kg, i.p.) and submitted to surgery to induce neuropathic pain. […] Sham animals (sciatic exposure without ligation) were used as controls. The animal pain response was monitored before surgery, on day 7 (24 h after the last administration). Compound (Id) was administered i.p. at 5 mg/kg once a day starting the day after the surgery. Heat hypersensitivity was tested according to the Hargreaves' procedure using the plantar test (Ugo Basile, Varese, Italy). Mechanical allodynia was measured using the Von Frey test.
# [5] = test system: TLR2; test: TNFα production after stimulation with Pam3Cys-SK4 (TLR2 selectivity); type: cell-based, Mouse; settings: stimulation with Pam3Cys-SK4, specific for TLR2
# Experimental: as §1
structure (smiles),measurement,setting,value
"CCCCCCCCCCCCCCO[C@H]1[C@@H](OC)O[C@H](C[N+](C)(C)C2CCCC2)[C@@H](O)[C@@H]1OCCCCCCCCCCCCCC [Compound Id, methyl 6-deoxy-6-N,N',N""-dimethylcyclopentylammonium-2,3-di-O-tetradecyl-α-D-glucopyranoside]",IL-1β synthesis,[1],inhibited
same,NF-kB activation,[2],able to significantly counteract the effect of lipid A
same,ischemia-induced EEG flattening,[3],able to significantly antagonize the ischemia-induced EEG flattening
same,mechanical allodynia,[4]; Von Frey test,significant relief
same,thermal hyperalgesia,[4]; plantar test,significant relief
same,TNFα production,[5],not inhibited
